Experimental data: US8192962B2, “Processes for detecting toxic substances” (Daikin Industries, Ltd., priority 2001, dated 2012)

Test system: Mitochondria-located protein genes
Test: DNA chip mRNA expression in yeast, mitochondria-located protein genes (Table 2)
Type: cell-based, Saccharomyces cerevisiae S288C
Conditions: cells incubated two hours with the chemical substance
Summary of the method: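 Value is the scanned fluorescence intensity ratio of exposed versus chemical-free cells. Log-phase S288C yeast in YPD at 25° C. received one toxic substance for two hours, dosed to slow growth without killing; Cy3/Cy5-labeled cDNA from oligo-dT-purified mRNA was hybridized to a whole-genome chip at 65° C.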

With COc1cc(CNC(=O)CCCCC=CC(C)C)ccc1O [(12), 8-methyl-N-vanillyl-6-nonenamide] the “The level of expressed mRNA in the presence of chemical substance/The level of expressed mRNA in the absence of chemical substance” value (yeast gene YJR121W) was 0.8, the “The level of expressed mRNA in the presence of chemical substance/The level of expressed mRNA in the absence of chemical substance” value (yeast gene YKL003C) was 0.7 and the “The level of expressed mRNA in the presence of chemical substance/The level of expressed mRNA in the absence of chemical substance” value (yeast gene YKL016C) was 1.0. The “The level of expressed mRNA in the presence of chemical substance/The level of expressed mRNA in the absence of chemical substance” value (yeast gene YKL141W) was 0.8, the “The level of expressed mRNA in the presence of chemical substance/The level of expressed mRNA in the absence of chemical substance” value (yeast gene YKL142W) was 1.9 and the “The level of expressed mRNA in the presence of chemical substance/The level of expressed mRNA in the absence of chemical substance” value (yeast gene YKL148C) was 0.8. For the same compound, the “The level of expressed mRNA in the presence of chemical substance/The level of expressed mRNA in the absence of chemical substance” value (yeast gene YKL170W) was 0.8, the “The level of expressed mRNA in the presence of chemical substance/The level of expressed mRNA in the absence of chemical substance” value (yeast gene YKL194C) was 0.6 and the “The level of expressed mRNA in the presence of chemical substance/The level of expressed mRNA in the absence of chemical substance” value (yeast gene YKR066C) was 0.9. The “The level of expressed mRNA in the presence of chemical substance/The level of expressed mRNA in the absence of chemical substance” value (yeast gene YLL041C) was 0.8, the “The level of expressed mRNA in the presence of chemical substance/The level of expressed mRNA in the absence of chemical substance” value (yeast gene YLR038C) was 0.6 and the “The level of expressed mRNA in the presence of chemical substance/The level of expressed mRNA in the absence of chemical substance” value (yeast gene YLR259C) was 0.7. For the same compound, the “The level of expressed mRNA in the presence of chemical substance/The level of expressed mRNA in the absence of chemical substance” value (yeast gene YLR295C) was 0.5, the “The level of expressed mRNA in the presence of chemical substance/The level of expressed mRNA in the absence of chemical substance” value (yeast gene YLR304C) was 1.0 and the “The level of expressed mRNA in the presence of chemical substance/The level of expressed mRNA in the absence of chemical substance” value (yeast gene YLR348C) was 0.9. For the same compound, the “The level of expressed mRNA in the presence of chemical substance/The level of expressed mRNA in the absence of chemical substance” value (yeast gene YLR395C) was 0.6, the “The level of expressed mRNA in the presence of chemical substance/The level of expressed mRNA in the absence of chemical substance” value (yeast gene YML054C) was 1.8 and the “The level of expressed mRNA in the presence of chemical substance/The level of expressed mRNA in the absence of chemical substance” value (yeast gene YML120C) was 0.9. For the same compound, the “The level of expressed mRNA in the presence of chemical substance/The level of expressed mRNA in the absence of chemical substance” value (yeast gene YML129C) was 0.8, the “The level of expressed mRNA in the presence of chemical substance/The level of expressed mRNA in the absence of chemical substance” value (yeast gene YMR023C) was 0.7 and the “The level of expressed mRNA in the presence of chemical substance/The level of expressed mRNA in the absence of chemical substance” value (yeast gene YMR035W) was 0.5. For the same compound, the “The level of expressed mRNA in the presence of chemical substance/The level of expressed mRNA in the absence of chemical substance” value (yeast gene YMR083W) was 0.7, the “The level of expressed mRNA in the presence of chemical substance/The level of expressed mRNA in the absence of chemical substance” value (yeast gene YMR089C) was 0.8 and the “The level of expressed mRNA in the presence of chemical substance/The level of expressed mRNA in the absence of chemical substance” value (yeast gene YMR152W) was 1.3. For the same compound, the “The level of expressed mRNA in the presence of chemical substance/The level of expressed mRNA in the absence of chemical substance” value (yeast gene YMR203W) was 0.7, the “The level of expressed mRNA in the presence of chemical substance/The level of expressed mRNA in the absence of chemical substance” value (yeast gene YMR267W) was 0.8 and the “The level of expressed mRNA in the presence of chemical substance/The level of expressed mRNA in the absence of chemical substance” value (yeast gene YNL055C) was 1.7. For the same compound, the “The level of expressed mRNA in the presence of chemical substance/The level of expressed mRNA in the absence of chemical substance” value (yeast gene YNL071W) was 1.3, the “The level of expressed mRNA in the presence of chemical substance/The level of expressed mRNA in the absence of chemical substance” value (yeast gene YNL073W) was 0.7 and the “The level of expressed mRNA in the presence of chemical substance/The level of expressed mRNA in the absence of chemical substance” value (yeast gene YNL104C) was 1.1. For the same compound, the “The level of expressed mRNA in the presence of chemical substance/The level of expressed mRNA in the absence of chemical substance” value (yeast gene YNL256W) was 0.6, the “The level of expressed mRNA in the presence of chemical substance/The level of expressed mRNA in the absence of chemical substance” value (yeast gene YOL096C) was 1.2 and the “The level of expressed mRNA in the presence of chemical substance/The level of expressed mRNA in the absence of chemical substance” value (yeast gene YOR020C) was 0.8. For the same compound, the “The level of expressed mRNA in the presence of chemical substance/The level of expressed mRNA in the absence of chemical substance” value (yeast gene YOR037W) was 1.2, the “The level of expressed mRNA in the presence of chemical substance/The level of expressed mRNA in the absence of chemical substance” value (yeast gene YOR100C) was 0.8 and the “The level of expressed mRNA in the presence of chemical substance/The level of expressed mRNA in the absence of chemical substance” value (yeast gene YOR130C) was 0.9. The “The level of expressed mRNA in the presence of chemical substance/The level of expressed mRNA in the absence of chemical substance” value (yeast gene YOR142W) was 0.8, the “The level of expressed mRNA in the presence of chemical substance/The level of expressed mRNA in the absence of chemical substance” value (yeast gene YOR150W) was 0.8 and the “The level of expressed mRNA in the presence of chemical substance/The level of expressed mRNA in the absence of chemical substance” value (yeast gene YOR176W) was 1.3. The “The level of expressed mRNA in the presence of chemical substance/The level of expressed mRNA in the absence of chemical substance” value (yeast gene YOR187W) was 0.8, the “The level of expressed mRNA in the presence of chemical substance/The level of expressed mRNA in the absence of chemical substance” value (yeast gene YOR316C) was 1.1 and the “The level of expressed mRNA in the presence of chemical substance/The level of expressed mRNA in the absence of chemical substance” value (yeast gene YPL040C) was 0.9. For the same compound, the “The level of expressed mRNA in the presence of chemical substance/The level of expressed mRNA in the absence of chemical substance” value (yeast gene YPL134C) was 0.8, the “The level of expressed mRNA in the presence of chemical substance/The level of expressed mRNA in the absence of chemical substance” value (yeast gene YPL135W) was 1.1 and the “The level of expressed mRNA in the presence of chemical substance/The level of expressed mRNA in the absence of chemical substance” value (yeast gene YPL215W) was 0.7. The “The level of expressed mRNA in the presence of chemical substance/The level of expressed mRNA in the absence of chemical substance” value (yeast gene YPL262W) was 1.1, the “The level of expressed mRNA in the presence of chemical substance/The level of expressed mRNA in the absence of chemical substance” value (yeast gene YPR024W) was 0.8 and the “The level of expressed mRNA in the presence of chemical substance/The level of expressed mRNA in the absence of chemical substance” value (yeast gene YPR037C) was 0.9. The “The level of expressed mRNA in the presence of chemical substance/The level of expressed mRNA in the absence of chemical substance” value (yeast gene YPR047W) was 0.9 and the “The level of expressed mRNA in the presence of chemical substance/The level of expressed mRNA in the absence of chemical substance” value (yeast gene YPR134W) was 0.9.
